Several values for one entry are separate records, joined by “and”; a condition that tells them apart may be missing. Identical values can stand only once. Like-named read-outs stand apart in the source and are kept apart here.
Legend:
[1] = test system: HIV-1 in acutely infected human PBM cells; assay: Median effect and combination index analysis in acutely infected human PBM cells (Day 6); assay type: cell-based; settings: Human immunodeficiency virus 1, PBMC, 144 h
Description: (§1) Table 5 provides the median effective concentration and combinations index (C.I.) values for D-D4FC alone and in combination with AZT and D4T in acutely infected human PBM cells (Day6). Table 6 describes the effect of β-D and β-L-D4FC against HIV-1 and cloned viruses I human PBM cells.

[2] = test system: HIV-1LAI; assay: Antiviral susceptibility assay (inhibition of p24 antigen production) in MT-2 cells, starting virus; assay type: cell-based; settings: Human immunodeficiency virus 1, MT2, 168 h, day 7 post infection, HIV-1LAI P0, wild type baseline
Procedure: Cells. MT-2 cells (AIDS Research and Reference Reagent Program, National Institute of Allergy and Infectious Diseases, National Institutes of Health, contributed by D. Richman) were cultured in RPMI 1640 (Whittaker M.A., Bioproducts, Walkersville, MD) supplemented with 10% fetal bovine serum, 10 mM HEPES buffer, penicillin (50 IU/ml) and streptomycin (50 µg/ml).
Viruses. HIV-1LAI, a molecularly cloned clinical isolate, was used both as the starting virus for the resistance selection as well as for the generation of recombinant mutants. Stock preparations of HIV-1LAI, were prepared by electrophorating 5-10 jig of proviral plasmid DNA into 1.3 x 10^7 MT-2 cells. At peak viral cytopathic effect (generally 7 days post transfection), the supernatant from infected cultures was collected, aliquoted and stored at -80°C until use. Virus preparations were titered by threefold endpoint dilution in MT-2 cells, and the TCID50 was calculated with the Reed and Muench equation.
Antiviral susceptibility assays. Virus susceptibility to D-D4FC was measured by measuring percent inhibition of p24 antigen production. Briefly, MT-2 cells (1 x 10^5 cells/ml) were infected with virus at a moi of 0.01 in the presence of serial D-D4FC dilutions. Each dilution was tested in triplicate. […]

[3] = test system: HIV-1p37 D-Fd4C#1; assay: Antiviral susceptibility assay (p24 antigen) in MT-2 cells, D-D4FC selected virus, selection #1 passage 37; assay type: cell-based; settings: V90I, R172K
Procedure: (§2) Selection of resistant virus. Prior to starting the selection of D-D4FC resistant virus, the starting virus (HIV -1LAI) was passaged as cell-free virus for 10 cycles in MT-2 cells in the absence of drug. D-D4FC resistant virus was selected by serially passaging HIV-1LAI in MT-2 cells in the presence of gradually increasing concentrations of D-D4FC. The selection for D-D4FC resistant virus was conducted twice. Selection was initiated by inoculating 1 x 10^6 MT-2 cells with […] of virus. At peak viral cytopathic effect (4-7 days post infection), supernatant from the infected cultures was collected and 0.1-0.3 ml were subsequently used to initiate another cycle of infection. Supernatant was also aliquoted and stored at -80°C for characterization of selected virus. Virus was passaged at least three times at each concentration, the number of cycles at any given concentration of drug being dependent on the ability of virus to grow at the particular concentration of D-D4FC. During the first selection procedure, virus was passaged once in the absence of drug prior to increasing the drug concentration (Table 2). As a control, virus was also passaged in parallel in the absence of drug. […]
Antiviral susceptibility assays. Virus susceptibility to D-D4FC was measured by measuring percent inhibition of p24 antigen production. […]

[4] = test system: HIV-1p20 D-Fd4C#2; assay: Antiviral susceptibility assay (p24 antigen) in MT-2 cells, D-D4FC selected virus, selection #2 passage 20; assay type: cell-based; settings: mutations K65R, V179D; for EC50: p24 antigen, selection #2 passage 20
Procedure: as §2
(§3) Antiviral susceptibility assays. Virus susceptibility to D-D4FC was measured by measuring percent inhibition of p24 antigen production. Briefly, MT-2 cells (1 x 10^5 cells/ml) were infected with virus at a moi of 0.01 in the presence of serial D-D4FC dilutions. Each dilution was tested in triplicate. Culture supernatants were harvested day 7 post infection and assayed for p24 antigen production using a commercial assay (DuPont, NEN Products, Wilmington, Del.).

[5] = test system: xxK65R; assay: D-D4FC susceptibility of recombinant HIV-1 in MT-2 cells; assay type: cell-based
Procedure: as §3
(§4) Production of mutant recombinant HIV-1. Mutant RT was generated using the Altered SitesII in vitro Mutagenesis System (Promega, Madison, WI). Mutagenesis was carried out on HIV-1LAI, RT cloned into a mutagenesis vector (PALTER, Promega). The presence of the desired mutation was determined by direct sequencing of the RT gene. The mutant RT was subsequently ligated into the pxxHIV-1 LAI vector. Stocks of mutant virus were then prepared by electrophorating 5-10 µg of DNA into 1.3 x 10^7 MT-2 cells as described above.

[6] = test system: xxK70N//R172K; assay: as above; assay type: cell-based
Procedure: as §3, §4

[7] = test system: xxK70N; assay: as above; assay type: cell-based
Procedure: as §3, §4

[8] = test system: xxR172K; assay: as above; assay type: cell-based
Procedure: as §3, §4

[9] = test system: xxV901/R172K; assay: as above; assay type: cell-based
Procedure: as §3, §4

[10] = test system: xxV90I; assay: as above; assay type: cell-based
Procedure: as §3, §4

[11] = test system: 4xM184VPITT (184V,67N,70R,215Y,219Q); assay: Effect against cloned viruses, in MT-2 cells; assay type: cell-based, HIV-1; settings: for FI50: In MT-2 cells, EC50 relative to HIV-1LAV or xxBRUPITT
[12] = test system: G2-2PITT (103N,41L,184V,210W,others); assay: Effect against cloned viruses, in MT-2 cells; assay type: cell-based, HIV-1; settings: for FI50: In MT-2 cells, EC50 relative to HIV-1LAV or xxBRUPITT
[13] = test system: 215/41PITT; assay: Effect against HIV-1 and cloned viruses in human PBM cells; assay type: cell-based; settings: for FI50: EC50 relative to HIV-1LAV or xxBRUPITT
Description: as §1

[14] = test system: 4X AZTPITT (67N,70R,215Y,219Q); assay: as above; assay type: cell-based; settings: for EC50 / EC90: human PBM cells
Description: as §1

[15] = test system: HIV-1LAV; assay: as above; assay type: cell-based; settings: Human immunodeficiency virus 1, PBMC
Description: as §1

[16] = test system: M184V/T215YPITT; assay: as above; assay type: cell-based; settings: for FI50: EC50 relative to HIV-1LAV or xxBRUPITT; for FI90: EC90 relative to HIV-1LAV or xxBRUPITT
Description: as §1

[17] = test system: M184VPITT; assay: as above; assay type: cell-based; settings: for FI50: EC50 resistant virus relative to HIV-1LAV or xxBRUPITT; for FI90: EC90 resistant virus relative to HIV-1LAV or xxBRUPITT
Description: as §1

[18] = test system: T215YPITT; assay: as above; assay type: cell-based; settings: for FI50: EC50 relative to HIV-1LAV or xxBRUPITT; for FI90: EC90 relative to HIV-1LAV or xxBRUPITT
Description: as §1

[19] = test system: xxBRUPITT; assay: as above; assay type: cell-based; settings: Human immunodeficiency virus 1, PBMC
Description: as §1

[20] = test system: L-D4FC-res.(25 µM); assay: as above; assay type: cell-based
Description: as §1

[21] = acutely infected human PBM cells, Day 6
[22] = median effective concentration, acutely infected human PBM cells, Day 6, read-out: EC50
[23] = Human immunodeficiency virus 1, MT2, In MT-2 cells (courtesy of Dr. J. Mellors)
[24] = EC90 relative to HIV-1LAV or xxBRUPITT
[25] = Human immunodeficiency virus 1, PBMC, human PBM cells
[26] = Human immunodeficiency virus 1, PBMC
[27] = In MT-2 cells (courtesy of Dr. J. Mellors)
[28] = human PBM cells, L-D4FC-res.(25 µM) virus

Work on `Cc1cn([C@H]2C[C@H](N=[N+]=[N-])[C@@H](CO)O2)c(=O)[nH]c1=O` [AZT, 3'-azido-3'-deoxythymidine] yielded an EC50 [1] of 3.3 nM.

In the case of `Nc1nc(=O)n([C@H]2C=C[C@@H](CO)O2)cc1F` [D-D4FC, β-2',3'-didehydro-2',3'-dideoxy-5-fluorocytidine], the EC50 [2] is reported as 210 nM, the EC50 ([3]; Human immunodeficiency virus 1, MT2, p24 antigen, selection #1 passage 37, mutations K70N) is reported as 4.07 µM and the “Fold Resistance” value ([3]; versus wild type HIV-1LAI, mutations K70N, 10080 min) is reported as 19.3 and 19.4. The EC50 ([4]; Human immunodeficiency virus 1, MT2, MT-2 cells) was 1100 nM, the EC50 ([4]; MT-2 cells) was 1110 nM and the “Fold Resistance” value ([4]; MT-2 cells, versus wild type HIV-1LAI, 10080 min) was 5.3. The EC50 ([5]; Human immunodeficiency virus 1, MT2, recombinant xxK65R) was 1240 nM, the “Fold Resistance” value ([5]; xxK65R versus xxLAI, 10080 min) was 3.9 and the EC50 ([6]; Human immunodeficiency virus 1, MT2) was 56 nM. The “Fold Resistance” value ([6]; MT-2 cells, xxK70N/V901/R172K versus xxLAI, 10080 min) was 0.4, the EC50 ([7]; Human immunodeficiency virus 1, MT2, recombinant xxK70N) was 240 nM and the “Fold Resistance” value ([7]; xxK70N versus xxLAI, 10080 min) was 1.4. The EC50 ([8]; Human immunodeficiency virus 1, MT2, recombinant xxR172K) was 230 nM, the “Fold Resistance” value ([8]; xxR172K versus xxLAI, 10080 min) was 0.8 and the EC50 ([9]; Human immunodeficiency virus 1, MT2, recombinant xxV901/R172K) was 360 nM. For the same compound, the “Fold Resistance” value ([9]; xxV901/R172K versus xxLAI, 10080 min) was 1.3, the EC50 ([10]; Human immunodeficiency virus 1, MT2, recombinant xxV90I) was 250 nM and the “Fold Resistance” value ([10]; xxV90I versus xxLAI, 10080 min) was 1.5. It also gave an EC90 [1, 21] of 78 nM, an EC50 [1, 22] of 7.6 nM and an EC50 [11, 23] of 45 nM. It also gave an FI50 ([11]; listed as β-D-D4FC) of 0.2, an EC50 [12, 23] of 40 nM and an FI50 ([12]; listed as β-D-D4FC) of 0.2. It also gave an FI50 ([13]; listed as β-D-D4FC) of 2, an FI90 [13, 24] of 1 and an EC50 [13, 25] of 130 nM. For the same compound, the EC90 [13, 25] was 490 nM, the FI50 ([14]; EC50 relative to HIV-1LAV or xxBRUPITT) was 1 and the FI90 [14, 24] was 1. The EC50 [14, 26] was 72 nM, the EC90 [14, 26] was 460 nM and the EC50 [15] was 220 nM. It also gave an EC90 [15] of 1320 nM, an FI50 ([16]; listed as β-D-D4FC) of 1 and an FI90 ([16]; listed as β-D-D4FC) of 1. For the same compound, the EC50 [16, 25] was 57 nM, the EC90 [16, 25] was 470 nM and the FI50 ([17]; listed as β-D-D4FC) was 2. For the same compound, the FI90 ([17]; listed as β-D-D4FC) was 2, the EC50 [17, 25] was 140 nM and the EC90 [17, 25] was 1040 nM. The FI50 ([18]; listed as β-D-D4FC) was 1, the FI90 ([18]; listed as β-D-D4FC) was 1 and the EC50 [18, 25] was 67 nM. It also gave an EC90 [18, 25] of 350 nM and an EC50 [19] of 65 nM.

For `Nc1nc(=O)n([C@H]2C=C[C@@H](CO)O2)cc1F` [β-L-D4FC, β-2',3'-didehydro-2',3'-dideoxy-5-fluorocytidine, reference compound], the EC50 [11, 27] was greater than 3300 nM, the FI50 [11] was greater than 47 and the EC50 [12, 27] was greater than 3300 nM. The FI50 [12] was greater than 47, the FI50 [13] was 1 and the EC50 [14] was 16 nM. It also gave an EC90 [14] of 110 nM, an FI50 ([20]; EC50 relative to HIV-1LAV or xxBRUPITT, L-D4FC-res.(25 µM)) of 222 and an FI90 ([20]; EC90 relative to HIV-1LAV or xxBRUPITT, L-D4FC-res.(25 µM)) of 208. The EC50 [20, 28] was 7.56 µM, the EC90 [20, 28] was 33.3 µM and the FI50 [16] was 332. The FI90 [16] was 848, the FI50 [17] was 146 and the FI90 [17] was 163. For the same compound, the FI50 [18] was 0.2 and the FI90 [18] was 0.3.

`Cc1cn([C@H]2C=C[C@@H](CO)O2)c(=O)[nH]c1=O` [D4T, 2',3'-dideoxy-2',3'-didehydrothymidine] was tested, and the EC90 [1, 21] was 220 nM and the EC50 [1, 22] was 15 nM.
